In patent US8367721B2, “Methods of treating an overweight or obese subject” (Zafgen, Inc., priority 2008, dated 2013):

Experiments:
[1] = system: diet-induced obese C57BL/6NTac mice; assay: 7 day oral weight loss study in diet-induced obese mice (Example 5); assay type: in vivo; conditions: oral 1.0 mg/kg once a day for 7 days
Procedure: A weight loss study was conducted in obese mice. The mice in this study were not genetically obese, but prior to and during the study, obesity was induced by a high-fat diet. Twelve week-old C57BL/6NTac mice, maintained on a 60% fat diet prior to and during the study, were separated into seven groups, eight animals per group. Average body weight of the mice was approximately 47 g at the start of the study.
Each of six groups was orally administered 1.0 mg/kg of a compound ([…] compounds B. C, D, E, F and G as disclosed herein), in 10% gelucire in deoinised water. Each of these six groups was administered a different compound. One group was orally administered fumagillin at 1.0 mg/kg (group 201) in 10% gelucire in deoinised water, and one group was administered 10% gelucire in deoinised water (vehicle). Mice received administrations once a day for 7 days.
(Data analyzed by ANCOVA with body weight on Day 1 as covariate followed by multiple tests against vehicle group: *p<0.05; **p<0.01, ***p<0.001.)

[2] = system: High fat diet-fed C57BL/6 mice; assay: 14 day body weight and food intake study in high fat diet-fed mice; assay type: in vivo
Procedure: High fat diet-fed C57BL/6 mice were treated with 1 mg/kg of the MetAP2 inhibitor fumagillin (ZGN-201, squares) or vehicle (diamonds) for 14 days (FIG. 10). Body weights (left panel) were determined daily, while food intake (right panel) was assessed every other day by measuring the food consumed by each cage of three mice over the two day period. Data shown in FIG. 10 are means±SEM, n=9 animals. […] First, during the initial two to three days of treatment, no overt changes in food intake or body weight are observed. During this time period key changes in MetAP2 substrates occur, including glyceraldehyde-3-phosphate dehydrogenase and thioredoxin (data not shown). Second, the animals enter a period of rapid weight loss that proceeds until essentially all excess fat deposits are consumed. During this second period, fat oxidation is enhanced and food intake is inhibited.
Weight loss following treatment with therapeutically relevant doses of MetAP2 inhibitors stops once animals attain a normal body composition. […] This third phase can be maintained indefinitely provided the drug is continued (see FIG. 10), or presumably can be maintained in practice through other complementary pharmacologic, dietary, or lifestyle interventions.

[3] = system: C57BL/6 mice conditioned on a high fat diet; assay: Oral gavage for 10 days in high fat diet mice; assay type: in vivo; conditions: oral gavage 0.3 or 3 mg/kg daily for 10 days
Source text: (§1) Oral administration of the MetAP2 inhibitor fumagillin causes an increase in circulating ketone bodies, as measured by concentration of beta hydroxybutyrate, which indicates an increase in the breakdown of stored fat.

[4] = system: C57BL/6 mice conditioned on a high fat diet; assay: Diet admixture for 250 days in high fat diet mice; assay type: in vivo
Procedure: as §1
In addition to showing an increase in beta hydroxybutyrate concentration, C57BL/6 mice conditioned on a high fat diet and treated with fumagillin (ZGN-201) as a diet admixture (1 mg/kg daily for 250 days) also experienced a reduction in body fat by approximately 40 percent (FIG. 6). Once attaining the maximum weight reduction, mice treated daily with 1 mg/kg fumagillin maintained a weight that was 25% less than that of age-matched mice maintained on normal mouse chow diet (lean mice, FIG. 6) for the duration of the experiment.
Adipose tissue in mice fed a high-fat diet show distinctive crown-like structures not seen in lean mice. These crown-like structures were also absent from the adipose tissue of fumagillin-treated mice.

[5] = system: Thioredoxin-1 (TXN) in B16F10 cells; assay: N-terminal chymotryptic fragments of TXN by LC/MS in fumagillin-treated B16F10 cells; assay type: cell-based
Procedure: B16F10 cells were treated with increasing concentrations of fumagillin. N-terminal chymotryptic fragments of TXN were measured by liquid chromatography/mass spectrometry (LC/MS). […] The EC50 of fumagillin to increase Met-TXN acetylated Met-TXN levels is <10 nM.

[6] = system: TXN in Cos-1 and 293T cells; assay: FLAG-tagged TXN expression (gel) in transfected Cos-1 and 293T cells; assay type: cell-based
Procedure: EC50 of fumagillin to increase TXN levels is <10 nM.

[7] = system: C57BL/6 mice conditioned on a high-fat diet; assay: 28 day oral gavage, fat and lean tissue change in high fat diet mice; assay type: in vivo; conditions: oral gavage 0.1 or 0.3 mg/kg for 28 days
Procedure: C57BL/6 mice were conditioned on a low-fat diet (LF), a high fat diet (HF), or a high-fat diet and treated with fumagillin (ZGN-201) administered by oral gavage at doses of 0.1 or 0.3 mg/kg for 28 days. […] To determine whether the weight loss resulted from loss of fat or loss of lean tissue, the percentage change in fat tissue and lean tissue was determined for LF mice, HF mice, HF mice treated with 0.1 mg/kg fumagillin, and HF mice treated with 0.3 mg/kg fumagillin.
Upon histological examination, the studies of treated obese mice show no effect on growth of new blood vessels in growing fat depots and no effect on blood vessel size or density when compared to animals in which weight loss has been induced by simple energy (food) restriction.

[8] = diet admixture 1 mg/kg daily for 250 days

In the case of `CO[C@@H]1[C@H](OC(=O)N[C@@H](C(N)=O)C(C)C)CC[C@]2(CO2)[C@H]1[C@@]1(C)O[C@@H]1CC=C(C)C` [B], the “body weight change over the course of the 8 days” value (“body weight change” below) [1] is reported as “lost weight”.
For `CO[C@@H]1[C@H](OC(=O)NCCC2CCCN2C)CC[C@]2(CO2)[C@H]1[C@@]1(C)O[C@@H]1CC=C(C)C` (stereo partly drawn) [C], the “body weight change” value [1] was “lost weight”.
For `CO[C@@H]1[C@H](OC(=O)N[C@@H](C(=O)NCCN2CCCC2)C(C)C)CC[C@]2(CO2)[C@H]1[C@@]1(C)O[C@@H]1CC=C(C)C` [E], the “body weight change” value [1] was “lost weight”.
`CO[C@@H]1[C@H](OC(=O)/C=C/C=C/C=C/C=C/C(=O)O)CC[C@]2(CO2)[C@H]1[C@@]1(C)O[C@@H]1CC=C(C)C` [fumagillin] was tested, and the “food intake during period of rapid weight loss” value ([2]; 1 mg/kg for 14 days, second phase) was “inhibited”, the “food intake after weight loss nadir” value ([2]; 1 mg/kg, third phase) was “returns to normal levels” and the beta hydroxybutyrate concentrations [3] was “increase”. For the same molecule, the “free fatty acid concentration” value [3] was “without an increase”, the “maintained weight less than that of age-matched lean mice on normal chow” value ([4]; 1 mg/kg daily, after maximum weight reduction) was 25% and the adipocyte size ([4]; 1 mg/kg, 250 days) was “more similar to that of age-matched lean mice”. For the same molecule, the “crown-like structures in adipose tissue” value ([4]; 1 mg/kg, 250 days) was “absent”, the “fasted glucose and insulin levels, insulin-glucose product” value ([4]; 1 mg/kg, 250 days) was “more similar to that of age-matched lean mice” and the “retroperitoneal fat pad weight” value ([4]; 1 mg/kg, 250 days) was “more similar to that of age-matched lean mice”. The “size and appearance of epididymal fat, peri-renal fat and liver” value ([4]; 1 mg/kg, 250 days) was “more similar to that of age-matched lean mice”, the “hydroxybutyrate concentration at longer time points” value [4, 8] was “Increased hydroxybutyrate concentration persisted” and the “reduction in body fat” value [4, 8] was “approximately 40%”. For the same molecule, the “body weight change” value [1] was “lost the most weight”, the “accumulation of N-acetyl TXN(1-4)” value ([5]; LC/MS) was “significant accumulation” and the “cellular level of TXN containing an intact N-terminal methionine [TXN(1-4)]” value ([5]; LC/MS) was “significantly increased”. The EC50 ([5]; Mus musculus, B16-F10, read-out: EC50 to increase Met-TXN acetylated Met-TXN levels) was under 10 nM, the “expression of TXN” value ([6]; Cos-1 and 293T cells transfected with FLAG-tagged TXN) was “significantly increased” and the EC50 ([6]; gel, FIG. 4, read-out: EC50 to increase TXN levels) was under 10 nM. The body weight [7] was “reduction in body weight down to the level of low fat fed mice”, the reduction in fat [7] was 40-50% and the “reduction in lean tissue” value [7] was 5-10%.
